Assays:
[1] = test system: Gold blatt type renoprival hypertension rats (RHR); test: Hypo-tensive effect, Gold blatt type renoprival hypertension rats (RHR), tail-cuff method; type: in vivo, rat; details: 30 mg/kg oral, mean ± standard deviation
Protocol: (§1) Hypo-tensive effect of the compounds was measured by determining the maximum blood pressure of the test animals according to a procedure of Tail-cuff method.
(§2) The following types of test animals were used:
(1) Gold blatt type renoprival hypertension rats (RHR)
Wistar strain male rats having 160-180 g of body weight were anesthetized with ether and the left-side renal artery was plugged with a silver clip having 0.2 mm inside diameter, while the right-side renal artery was kept as it was without operation. Four (4) weeks after the operation, rats having the maximum blood pressure over 150 mmHg were selected and used as test animals after having been denied food overnight.
(§3) Each of compounds to be tested was administered orally and the blood pressure of the rats was measured before the administration and 1, 2, 4, 6 and 8 hours after the administration. The blood pressure was measured by using Recorder (Rectihoriz type 8S, San-ei Instrument) and Electrosthygmomanometer PE-300 (Macro Bio-systems, Houston, Tex.).

[2] = test system: Deoxycorticosteroneacetate (DOCA)/saline hypertension rats (DHR); test: Hypo-tensive effect, Deoxycorticosteroneacetate (DOCA)/saline hypertension rats (DHR), tail-cuff method; type: in vivo, rat; details: 30 mg/kg oral, mean ± standard deviation
Protocol: as §1, §2
(2) Deoxycorticosteroneacetate (DOCA)/saline hypertension rats (DHR)
Wistar strain male rats having 150-170 g of body weight were anesthetized with ether and the left-side kidney was enucleated. One(1) week after the operation, 10 mg/kg of DOCA was injected subcutaneously once a week and 1% NaCl aqueous solution was given as drinking water. Five(5) weeks after the operation, rats having the maximum blood pressure over 150 mmHg were selected and used as test animals after having been denied food overnight.
as §3

[3] = test system: rabbit platelet (ADP-induced aggregation); test: Platelet aggregation inhibitory effect, ADP-induced aggregation in rabbit platelet; type: cell-based; details: Oryctolagus cuniculus; for inhibition at 100 µM: concentration of the test compound solution 10^-4 mole; for inhibition at 100 µM / inhibition at 10 µM: read-out: Inhibition effect on ADP-induced aggregation in rabbit platelet; for inhibition at 10 µM: concentration of the test compound solution 10^-5 mole; for inhibition at 1 µM: concentration of the test compound solution 10^-6 mole
Description: The blood sample used for the test is a 1/9 (by volume) mixture of sodium citrate and whole blood collected from rabbit. Said sample is subjected to 10-minute centrifugal separation at 1,000 r.p.m. to obtain a platelet rich plasma (PRP). The thus obtained PRP is separated, and the remaining blood sample is further subjected to 15-minute centrifugal separation at 3,000 r.p.m. to obtain a platelet poor plasma (PPP).
The number of platelets in the PRP is counted by the Brecher-Clonkite Method, and the PRP is diluted with the PPP to prepare a PRP sample with platelet concentration of 300,000/mm^3 for the adenosine diphosphate (ADP)-induced aggregation test. There is also prepared a PRP sample with platelet concentration of 450,000/mm^3 for the collagen-induced aggregation test.
0.6 Ml of said PRP sample is added into 0.01 ml of a solution of a test compound of a predetermined concentration and the mixture is placed in a 37° C. thermostat for one minute. Then 0.07 ml of an ADP or collagen solution is added to the mixture. Transmittance of this mixture is determined and the change of transmittance is recorded by using the aggregometer at stirrer speed of 1,100 r.p.m. […] ADP is adjusted to a concentration of 7.5×10^-5 M, and the collagen solution is prepared by triturating 100 mg of collagen with 5 ml of said buffer and the supernatant is used as collagen inducer. Adenosine and acetylsalicylic acid are used as controls for the ADP-induced aggregation test and the collagen-induced aggregation test, respectively. The platelet aggregation inhibitory effect is measured in terms of percent inhibition with respect to the aggregation rate of the controls. The aggregation rate is calculated from the following formula: [formula] wherein a: transmittance of PRP
b: transmittance of PRP containing a test compound and an aggregation inducer
The compounds tested are as follows.

| SMILES | Maximum blood pressure, difference after the administration ([1]; 1 hour) [mmHg] | Maximum blood pressure, difference after the administration ([1]; 2 hours) [mmHg] | Maximum blood pressure, difference after the administration ([1]; 4 hours) [mmHg] | Maximum blood pressure, difference after the administration ([1]; 6 hours) [mmHg] | Maximum blood pressure, difference after the administration ([1]; 8 hours) [mmHg] | Maximum blood pressure, difference after the administration ([2]; 1 hour) [mmHg] | Maximum blood pressure, difference after the administration ([2]; 2 hours) [mmHg] | Maximum blood pressure, difference after the administration ([2]; 4 hours) [mmHg] | Maximum blood pressure, difference after the administration ([2]; 6 hours) [mmHg] | Maximum blood pressure, difference after the administration ([2]; 8 hours) [mmHg] | inhibition at 100 µM [3] [%] | inhibition at 10 µM [3] [%] | inhibition at 1 µM [3] [%] |
| --- | --- | --- | --- | --- | --- | --- | --- | --- | --- | --- | --- | --- | --- |
| O=c1ccc2cc(OCCCc3nnnn3C3CCCCC3)ccc2[nH]1 [Compound 1, 6-[3-(1-Cyclohexyltetrazol-5-yl)propoxy]carbostyril] | -3.3 ± 5.2 | -9.9 ± 6.7 | -36.7 ± 9.7 | -33.4 ± 8.6 | -31.3 ± 8.8 | -10.1 ± 3.7 | -10.0 ± 3.7 | -17.4 ± 5.2 | -25.4 ± 10.5 | -34.6 ± 13.5 | 100 | 63.4 | 32.7 |
| O=c1ccc2cc(OCCCc3nnnn3CC3CCCCC3)ccc2[nH]1 [Compound 5, 6-[3-(1-Cyclohexylmethyltetrazol-5-yl)propoxy]carbostyril] | -30.2 ± 8.2 | -21.2 ± 5.7 | -21.7 ± 7.5 | -24.7 ± 10.4 |  | -10.7 ± 10.6 | -15.2 ± 11.2 | -12.5 ± 15.3 | -18.1 ± 9.6 |  | 100 | 64.1 | 34.2 |
| O=c1ccc2cc(OCCCc3nnnn3C3CCCCCCC3)ccc2[nH]1 [Compound 6, 6-[3-(1-Cyclooctyltetrazol-5-yl)propoxy]carbostyril] | -8.5 ± 4.3 | -10.7 ± 7.6 | -40.8 ± 9.9 | -35.4 ± 9.5 | -28.4 ± 7.7 | -9.2 ± 4.8 | -12.0 ± 5.6 | -18.5 ± 6.1 | -30.3 ± 10.8 | -26.8 ± 10.6 | 100 | 75.5 | 30.5 |
| O=c1ccc2cc(OCCCCc3nnnn3C3CCCCC3)ccc2[nH]1 [Compound 7, 6-[4-(1-Cyclohexyltetrazol-5-yl)butoxy]carbostyril] | -9.5 ± 10.4 | -12.6 ± 8.9 | -34.9 ± 19.8 | -30.4 ± 8.6 | -19.7 ± 8.4 | -8.4 ± 10.3 | -11.5 ± 8.5 | -14.8 ± 7.7 | -20.2 ± 14.0 | -21.3 ± 19.1 | 100 | 59.9 | 28.7 |
